Active and inactive are the calls of the source. No cut-off for these calls is given here.
How the values were obtained:
A549 [1] = test: Cell cycle arrest in human A549 cells assessed as accumulation at S phase at 55 nM after 20 hrs by propidium iodide staining based flow cytometry (reference value: 16 +/- 1%); type: functional
HEK293 = test: Antiproliferative activity against HEK293 cells after 2 days by MTT assay; type: cell-based; details: Homo sapiens, HEK293, 48 h
A549 [2] = test: Disruption of microtubule network in human A549 cells assessed as appearance of compressed and fragmented nuclei at 220 nM after 16 hrs by Hoechst staining based immunofluorescence assay; type: cell-based
A549 [3] = test: Antiproliferative activity against human A549 cells after 2 days by MTT assay; type: functional, cell-based; details: A549, 48 h
HMEC-1 = test: Antiproliferative activity against HMEC1 cells after 2 days by MTT assay; type: functional, cell-based; details: Homo sapiens, HMEC-1, 48 h
HeLa = test: Antiproliferative activity against human HeLa cells after 2 days by MTT assay; type: functional, cell-based; details: 48 h
HT-29 = test: Antiproliferative activity against human HT-29 cells after 2 days by MTT assay; type: functional, cell-based; details: HT-29, 48 h
MCF7 = test: Antiproliferative activity against human MCF7 cells after 2 days by MTT assay; type: functional, cell-based; details: MCF7, 48 h
HL-60 = test: Antiproliferative activity against human HL60 cells after 2 days by MTT assay; type: functional, cell-based; details: HL-60, 48 h
A549 [4] = test: Cell cycle arrest in human A549 cells assessed as accumulation at G2/M phase at 55 nM after 20 hrs by propidium iodide staining based flow cytometry (reference value: 11 +/- 1%); type: functional
A549 [5] = test: Cell cycle arrest in human A549 cells assessed as accumulation at sub-G0 phase at 55 nM after 20 hrs by propidium iodide staining based flow cytometry (reference value: 6.6 +/- 0.1%); type: functional
MDA-MB-231 = test: Antiproliferative activity against human MDA-MB-231 cells after 3 days by coulter counting method; type: functional, cell-based; details: MDA-MB-231, 72 h
A549 [6] = test: Disruption of microtubule network in human A549 cells assessed as appearance of tubulin aggregates at 220 nM after 16 hrs by Hoechst staining based immunofluorescence assay; type: cell-based
A549 [7] = test: Cell cycle arrest in human A549 cells assessed as accumulation at G0/G1 phase at 55 nM after 20 hrs by propidium iodide staining based flow cytometry (reference value: 66 +/- 1%); type: functional
A549 [8] = test: Cell cycle arrest in human A549 cells assessed as accumulation at G0/G1 phase at 650 nM after 20 hrs by propidium iodide staining based flow cytometry (reference value: 66 +/- 1%); type: functional
A549 [9] = test: Cell cycle arrest in human A549 cells assessed as accumulation at G2/M phase at 650 nM after 20 hrs by propidium iodide staining based flow cytometry (reference value: 11 +/- 1%); type: functional
A549 [10] = test: Cell cycle arrest in human A549 cells assessed as accumulation at S phase at 650 nM after 20 hrs by propidium iodide staining based flow cytometry (reference value: 16 +/- 1%); type: functional
A549 [11] = test: Cell cycle arrest in human A549 cells assessed as accumulation at sub-G0 phase at 650 nM after 20 hrs by propidium iodide staining based flow cytometry (reference value: 6.6 +/- 0.1%); type: functional
A549 [12] = test: Cell cycle arrest in human A549 cells assessed as accumulation at G2/M phase at 230 nM after 20 hrs by propidium iodide staining based flow cytometry (reference value: 11 +/- 1%); type: functional
A549 [13] = test: Cell cycle arrest in human A549 cells assessed as accumulation at G0/G1 phase at 230 nM after 20 hrs by propidium iodide staining based flow cytometry (reference value: 66 +/- 1%); type: functional
A549 [14] = test: Cell cycle arrest in human A549 cells assessed as accumulation at S phase at 230 nM after 20 hrs by propidium iodide staining based flow cytometry (reference value: 16 +/- 1%); type: functional
A549 [15] = test: Cell cycle arrest in human A549 cells assessed as accumulation at sub-G0 phase at 230 nM after 20 hrs by propidium iodide staining based flow cytometry (reference value: 6.6 +/- 0.1%); type: functional
A549 [16] = test: Cell cycle arrest in human A549 cells assessed as accumulation at G0/G1 phase at 2000 nM after 20 hrs by propidium iodide staining based flow cytometry (reference value: 66 +/- 1%); type: functional
A549 [17] = test: Cell cycle arrest in human A549 cells assessed as accumulation at sub-G0 phase at 2000 nM after 20 hrs by propidium iodide staining based flow cytometry (reference value: 6.6 +/- 0.1%); type: functional
A549 [18] = test: Cell cycle arrest in human A549 cells assessed as accumulation at G2/M phase at 2000 nM after 20 hrs by propidium iodide staining based flow cytometry (reference value: 11 +/- 1%); type: functional

Structure (SMILES) | IC50 (HEK293) | IC50 (A549 [3]) | IC50 (HMEC-1) | IC50 (HeLa) | IC50 (HT-29) | IC50 (MCF7) | IC50 (HL-60) | IC50 (MDA-MB-231) | further results
COc1ccc(/C=C\c2cc(OC)c(OC)c(OC)c2)cc1NC(=O)Oc1ccccc1C(F)(F)F | 4.1 nM | 110 nM | 19 nM | 15 nM | 16 nM | 44 nM | 6.7 nM | 13.7 nM | Activity (A549 [1]): 15%; Activity (A549 [2]): Active; Activity (A549 [4]): 44%; Activity (A549 [5]): 20%; Activity (A549 [6]): Active; Activity (A549 [7]): 21%
COc1ccc(/C=C\c2cc(OC)c(OC)c(OC)c2)cc1NC(=O)Oc1ccc(C)c(C)c1 | 97 nM | 1300 nM | 130 nM | 21 nM | 130 nM | 170 nM | 69 nM | 41 nM | Activity (A549 [8]): 24%; Activity (A549 [9]): 41%; Activity (A549 [10]): 19%; Activity (A549 [11]): 17%
COc1ccc(/C=C\c2cc(OC)c(OC)c(OC)c2)cc1NC(=O)Oc1ccccc1C | 60 nM | 460 nM | 55 nM | 50 nM | 160 nM | 380 nM | 222 nM | 21 nM | Activity (A549 [12]): 40%; Activity (A549 [13]): 31%; Activity (A549 [14]): 13%; Activity (A549 [15]): 16%
COc1ccc(/C=C\c2cc(OC)c(OC)c(OC)c2)cc1NC(=O)Oc1c(C)cccc1C | 490 nM | 3900 nM | 380 nM | 320 nM | 600 nM | 440 nM | 470 nM | 76 nM | Activity (A549 [16]): 25%; Activity (A549 [17]): 23%; Activity (A549 [18]): 35%

Reference: ChEMBL document CHEMBL4145540 (Eur J Med Chem, 2018)
